Where two headings read alike, the source gives them in different places.
Conditions: for sorption/desorption profile (hygroscopicity): DMS, two cycles of sorption and desorption, 25° C.
Description: Dynamic moisture sorption (DMS) measurement was performed using a VTI atmospheric microbalance, SGA-100 system (VTI Corp., Hialeah, FL 33016). A weighed sample was used and the humidity was lowest possible value (close to 0% RH) at the start of the analysis. The DMS analysis consisted of an initial drying step (˜0%RH) for 120 minutes, followed by two cycles of sorption and desorption with a scan rate of 5% RH/step over the humidity range of 5% RH to 90% RH. The DMS run was performed isothermally at 25° C.

SMILES: CCc1cc(O)c(F)cc1-c1ccc2c(-c3nc4c([nH]3)CCN(C3CCN(C)CC3)C4)n[nH]c2c1.O.O=C(O)CCC(=O)O [succinate hydrate, Crystalline Succinate Hydrate of 5-ethyl-2-fluoro-4-(3-(5-(1-methylpiperidin-4-yl)-4,5,6,7-tetrahydro-1H-imidazo[4,5-c]pyridin-2-yl)-1H-indazol-6-yl)phenol]
- sorption/desorption profile (hygroscopicity): slight propensity for hygroscopicity
- total moisture uptake (relative humidity between about 5% and about 90% at room temperature): about 2%

SMILES: CCc1cc(O)c(F)cc1-c1ccc2c(-c3nc4c([nH]3)CCN(C3CCN(C)CC3)C4)n[nH]c2c1.O.O=C(O)C(=O)O [oxalate hydrate, Crystalline Oxalate Hydrate of 5-ethyl-2-fluoro-4-(3-(5-(1-methylpiperidin-4-yl)-4,5,6,7-tetrahydro-1H-imidazo[4,5-c]pyridin-2-yl)-1H-indazol-6-yl)phenol]
- sorption/desorption profile (hygroscopicity): slight propensity for hygroscopicity
- total moisture uptake (relative humidity between about 30% and about 90% at room temperature): about 1%

Reference: patent US10251874B2, “Crystalline forms of a JAK inhibitor compound” (THERAVANCE BIOPHARMA R&D IP, LLC, priority 2017, dated 2019)
